The results in this text go back to ChEMBL document CHEMBL2073970, “Expression cloning and functional characterization of the kidney cortex high-affinity proton-coupled peptide transporter” (Proc Natl Acad Sci U S A, 1996).

In the test the target is T1, Solute carrier family 15 member 2 (Rattus norvegicus) (UniProt Q63424).
T1 sequence (whole entry): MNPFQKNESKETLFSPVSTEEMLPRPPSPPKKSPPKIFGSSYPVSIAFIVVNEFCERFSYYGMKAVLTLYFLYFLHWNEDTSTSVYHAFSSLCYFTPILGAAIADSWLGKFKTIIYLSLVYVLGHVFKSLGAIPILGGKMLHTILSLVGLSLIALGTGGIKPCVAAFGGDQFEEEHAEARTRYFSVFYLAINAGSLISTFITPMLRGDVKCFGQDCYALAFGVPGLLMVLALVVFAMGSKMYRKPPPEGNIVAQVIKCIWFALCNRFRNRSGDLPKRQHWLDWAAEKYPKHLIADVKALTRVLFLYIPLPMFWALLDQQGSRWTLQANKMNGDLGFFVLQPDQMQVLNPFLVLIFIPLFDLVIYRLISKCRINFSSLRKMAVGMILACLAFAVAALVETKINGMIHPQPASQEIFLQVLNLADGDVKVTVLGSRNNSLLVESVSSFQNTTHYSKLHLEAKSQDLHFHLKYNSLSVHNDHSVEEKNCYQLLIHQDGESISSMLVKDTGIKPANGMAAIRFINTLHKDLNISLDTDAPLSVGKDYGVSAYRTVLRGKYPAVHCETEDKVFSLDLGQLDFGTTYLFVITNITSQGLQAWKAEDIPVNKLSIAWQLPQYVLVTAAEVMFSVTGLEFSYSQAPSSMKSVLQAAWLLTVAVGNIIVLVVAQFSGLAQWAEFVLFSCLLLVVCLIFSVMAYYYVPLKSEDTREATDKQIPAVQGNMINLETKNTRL
As to the kind of experiment: TP_TRANSPORTER: inhibition of Cefadroxil uptake (Cefadroxil: 25 uM, Loracarbef: 5000uM) in Xenopus laevis oocytes. Format: functional, cell-based. The note with it: Oocyte.

Regarding `N[C@@H](C(=O)N[C@@H]1C(=O)N2C(C(=O)O)=C(Cl)CC[C@H]12)c1ccccc1`, the Activity entry was “inhibitor [15% (at a rough estimate) of control]”.
